According to paper PMC6849638 (2019):

What was measured:
Assay in all cases: luminescence titration
Settings in all cases: Na+ 100 mM; 20 mM Tris-HCl, pH 7.5, 298 K; apparent
[1] = tested on: A3T3 (DNA, hairpin) GGCAAATTTCAGTTTTTCTGAAATTTGCC
[2] = tested on: A2T2 (DNA, hairpin) GGCGAATTCAGCTTTTTGCTGAATTCGCC
[3] = tested on: A2T3 (DNA, hairpin) GGCGAATTTCGCTTTTTGCGAAATTCGCC
[4] = tested on: G2C3 (DNA, hairpin) GGCAGGCCCAGCTTTTTGCTGGGCCTGCC

KD [1]	KD [2]	KD [3]	KD [4]	SMILES
1.01 (0.12) μM	0.27 (0.09) μM	0.49 (0.03) μM	1.44 (0.09) μM	N=C(N)c1ccc(NCc2ccnc(-c3cc(CNc4ccc(C(=N)N)cc4)ccn3)c2)cc1.[Ir+3].[c-]1ccccc1-c1ccccn1.[c-]1ccccc1-c1ccccn1 [Δ-4Ir]
0.47 (0.03) μM	1.15 (0.13) μM	0.62 (0.04) μM	0.70 (0.05) μM	N=C(N)c1ccc(NCc2ccnc(-c3cc(CNc4ccc(C(=N)N)cc4)ccn3)c2)cc1.[Ir+3].[c-]1ccccc1-c1ccccn1.[c-]1ccccc1-c1ccccn1 [Λ-4Ir]
